Test [1] has as its system Hepatitis C virus. The test is described as follows: Antiviral activity against wild type Hepatitis C virus subtype 1b by transient replicon assay. In kind it is functional, organism-based, Hepacivirus hominis. Conditions: genotype 1b. A general note: A replicon is a self-replicating genome or part of one, used to study replication in cells.
Test [2] relates to Hepatitis C virus. Description: Antiviral activity against Hepatitis C virus subtype 1a by stable replicon assay. Type of test: functional, organism-based, Hepacivirus hominis.
Test [3] relates to Hepatitis C virus. Description: Antiviral activity against Hepatitis C virus subtype 1b by stable replicon assay. Type of test: functional, organism-based, Hepacivirus hominis. Particulars: genotype 1b.
Test [4] in a line: Inhibition of HCV 1a protease 1a domain. Also noted: species or system Hepacivirus hominis.
Test [5] deals with Hepatitis C virus. Description: Antiviral activity against Hepatitis C virus subtype 1b harboring protease D168V mutant by transient replicon assay. In kind it is functional, organism-based, Hepacivirus hominis. Conditions: genotype 1b.
Test [6] has as its system Hepatitis C virus. The test is described as follows: Antiviral activity against Hepatitis C virus subtype 1b harboring protease D168A mutant by transient replicon assay. Type of test: functional, organism-based, Hepacivirus hominis. Conditions: genotype 1b.
The test system of test [7] is Hepatitis C virus. Description: Antiviral activity against Hepatitis C virus subtype 1b harboring protease R155K mutant by transient replicon assay. In kind it is functional, organism-based, Hepacivirus hominis. Conditions: genotype 1b.
Test [8] relates to Hepatitis C virus. The test is described as follows: Antiviral activity against Hepatitis C virus subtype 1b harboring protease A156V mutant by transient replicon assay. Type of test: functional, organism-based, Hepacivirus hominis. Particulars: genotype 1b.
The test system of test [9] is Hepatitis C virus. The test is described as follows: Antiviral activity against Hepatitis C virus subtype 1b harboring protease A156T mutant by transient replicon assay. In kind it is functional, organism-based, Hepacivirus hominis. Conditions: genotype 1b.
Test [10] deals with Hepatitis C virus. The test is described as follows: Antiviral activity against Hepatitis C virus subtype 1b harboring protease A156S mutant by transient replicon assay. Type of test: functional, organism-based, Hepacivirus hominis. Conditions: genotype 1b.

Consider 14 compounds from ChEMBL document CHEMBL2034968, “Discovery of novel urea-based hepatitis C protease inhibitors with high potency against protease-inhibitor-resistant mutants” (J Med Chem, 2012).

The EC50 is the concentration at which the effect is half-maximal. Broadly, the IC50 is the concentration needed to halve the response being measured. A lower IC50 goes with greater potency in that assay. In the case of `COc1ccc2c(O[C@@H]3C[C@H]4C(=O)N[C@]5(C(=O)NS(=O)(=O)C6CC6)C[C@H]5/C=C\CCCCC[C@H](NC(=O)N5CCC(O)CC5)C(=O)N4C3)cc(-c3nc(C(C)C)cs3)nc2c1C`, the concentration giving a half-maximal response (EC50) in the test on Hepatitis C virus [1] is 0.1 nM; with Hepatitis C virus [2], 0.6 nM; with Hepatitis C virus [3] it was 0.3 nM; in the test with Hepatitis C virus [5], 154 nM; in the test with Hepatitis C virus [6], 42 nM; in the test on Hepatitis C virus [7] it was 7 nM. Further, the concentration for a half-maximal effect (EC50) in the test with Hepatitis C virus [8] is 9 nM; with Hepatitis C virus [9] it was 2 nM. This compound also yielded a half-inhibitory concentration (IC50) in [4] of 2 nM.

As for `COc1ccc2c(O[C@@H]3C[C@H]4C(=O)N[C@]5(C(=O)NS(=O)(=O)C6CC6)C[C@H]5/C=C\CCCCC[C@H](NC(=O)N5CC6CCCC6C5)C(=O)N4C3)cc(-c3nc(C(C)C)cs3)nc2c1C` (some centres undefined), the EC50 in the test with Hepatitis C virus [10] worked out at 0.1 nM; in the test with Hepatitis C virus [1], 0.01 nM; with Hepatitis C virus [2] it was 0.3 nM; in the test on Hepatitis C virus [3], 0.3 nM; in the test with Hepatitis C virus [5], 83 nM; in the test on Hepatitis C virus [6] it was 23 nM. Further, the EC50 in the test with Hepatitis C virus [7] came out at 11 nM; with Hepatitis C virus [8] it was 15 nM; in the test with Hepatitis C virus [9], 1 nM. This compound yielded an IC50 in [4] of 5 nM.

With `COc1ccc2c(O[C@@H]3C[C@H]4C(=O)N[C@]5(C(=O)NS(=O)(=O)C6CC6)C[C@H]5/C=C\CCCCC[C@H](NC(N)=O)C(=O)N4C3)cc(-c3nc(C(C)C)cs3)nc2c1C`, the concentration for a half-maximal effect (EC50) was 0.4 nM with Hepatitis C virus [1]; 1.8 nM with Hepatitis C virus [2]; 0.5 nM with Hepatitis C virus [3]; 2260 nM in the test on Hepatitis C virus [5]; 873 nM in the test with Hepatitis C virus [6]; 66 nM in the test with Hepatitis C virus [7]. The EC50 was 16 nM in the test on Hepatitis C virus [8] and 6 nM in the test with Hepatitis C virus [9]. The IC50 in test [4] was 2 nM.

On to `CCN(CC)C(=O)N[C@H]1CCCCC/C=C\[C@@H]2C[C@@]2(C(=O)NS(=O)(=O)C2CC2)NC(=O)[C@@H]2C[C@@H](Oc3cc(-c4nc(C(C)C)cs4)nc4c(C)c(OC)ccc34)CN2C1=O`, for which the EC50 with Hepatitis C virus [10] was determined as 0.5 nM; in the test with Hepatitis C virus [1], 0.1 nM; in the test with Hepatitis C virus [2], 0.9 nM; with Hepatitis C virus [3], 0.7 nM; in the test on Hepatitis C virus [5], 131 nM; with Hepatitis C virus [6] it was 56 nM. Also, the values for the concentration for a half-maximal effect (EC50) in the test on Hepatitis C virus [7], in the test on Hepatitis C virus [8] and in the test on Hepatitis C virus [9] were 15 nM, 8 nM and 2 nM, respectively. Besides, in [4], the 50% inhibitory concentration (IC50) is 1 nM.

`COc1ccc2c(O[C@@H]3C[C@H]4C(=O)N[C@]5(C(=O)NS(=O)(=O)C6CC6)C[C@H]5/C=C\CCCCC[C@H](NC(=O)N5CCC(N6CCCC6)CC5)C(=O)N4C3)cc(-c3nc(C(C)C)cs3)nc2c1C`: the concentration giving a half-maximal response (EC50) in the test on Hepatitis C virus [10] came out at 1.9 nM; in the test with Hepatitis C virus [1], 0.5 nM; with Hepatitis C virus [2], 0.6 nM; in the test with Hepatitis C virus [3], 0.5 nM; in the test with Hepatitis C virus [6] it was 1620 nM; with Hepatitis C virus [7], 102 nM. In addition, the figures for the EC50 with Hepatitis C virus [8] and in the test with Hepatitis C virus [9] were 98 nM and 12 nM, respectively. Besides, it took 2 nM to reach half-maximal inhibition in test [4] (IC50).

On to `CC(C)(C)NC(=O)N[C@H](C(=O)N1C[C@H]2[C@@H]([C@H]1C(=O)NC(CC1CCC1)C(=O)C(N)=O)C2(C)C)C(C)(C)C` (some centres undefined) [BOCEPREVIR], for which the concentration giving a half-maximal response (EC50) is 400 nM in the test on Hepatitis C virus [1], 40 nM with Hepatitis C virus [5], 700 nM with Hepatitis C virus [7] and 12000 nM in the test on Hepatitis C virus [9].

For the compound `COc1ccc2c(O[C@@H]3C[C@H]4C(=O)N[C@]5(C(=O)NS(=O)(=O)C6CC6)C[C@H]5/C=C\CCCCC[C@H](NC(=O)NCc5ccc(CO)c(O)c5)C(=O)N4C3)cc(-c3nc(C(C)C)cs3)nc2c1C`, the EC50 is 15.5 nM with Hepatitis C virus [2] and 1.1 nM in the test with Hepatitis C virus [3]. In addition, in test [4], the IC50 was determined as 0.5 nM.

Turning to `COc1ccc2c(O[C@@H]3C[C@H]4C(=O)N[C@]5(C(=O)NS(=O)(=O)C6CC6)C[C@H]5/C=C\CCCCC[C@H](NC(=O)N5CCN(C6CCCC6)CC5)C(=O)N4C3)cc(-c3nc(C(C)C)cs3)nc2c1C`, the EC50 with Hepatitis C virus [1] came to 0.1 nM; in the test with Hepatitis C virus [2] it was 0.5 nM; with Hepatitis C virus [3], 0.3 nM; in the test on Hepatitis C virus [5], 477 nM; in the test on Hepatitis C virus [6], 169 nM; in the test with Hepatitis C virus [7], 60 nM. The concentration for a half-maximal effect (EC50) in the test on Hepatitis C virus [8] was determined as 32 nM; with Hepatitis C virus [9] it was 5 nM. This compound also displayed a concentration for half-maximal inhibition (IC50) in test [4] of 2 nM.

Take `COc1ccc2c(O[C@@H]3C[C@H]4C(=O)N[C@]5(C(=O)NS(=O)(=O)C6CC6)C[C@H]5/C=C\CCCCC[C@H](NC(=O)N5CCC(c6ccccc6)CC5)C(=O)N4C3)cc(-c3nc(C(C)C)cs3)nc2c1C`: the EC50 in the test with Hepatitis C virus [1] worked out at 0.2 nM; in the test on Hepatitis C virus [2], 1.6 nM; with Hepatitis C virus [3] it was 0.9 nM; with Hepatitis C virus [5], 386 nM; in the test with Hepatitis C virus [6] it was 182 nM; in the test on Hepatitis C virus [7], 69 nM. Further, the EC50 in the test with Hepatitis C virus [8] stood at 30 nM; in the test with Hepatitis C virus [9], 5 nM. In test [4], this compound came in with an IC50 of 7 nM.

For the compound `COc1ccc2c(O[C@@H]3C[C@H]4C(=O)N[C@]5(C(=O)NS(=O)(=O)C6CC6)C[C@H]5/C=C\CCCCC[C@H](NC(=O)N(C)C)C(=O)N4C3)cc(-c3nc(C(C)C)cs3)nc2c1C`, the EC50 with Hepatitis C virus [1] came to 0.04 nM; with Hepatitis C virus [2], 0.3 nM; with Hepatitis C virus [3] it was 0.1 nM; in the test on Hepatitis C virus [5], 57 nM; in the test on Hepatitis C virus [6] it was 36 nM; in the test with Hepatitis C virus [7] it was 10 nM. For the same compound, the concentration for a half-maximal effect (EC50) in the test on Hepatitis C virus [8] is 5 nM; in the test with Hepatitis C virus [9], 1 nM. The compound also yielded a half-maximal inhibitory concentration (IC50) in test [4] of 2 nM.

For the compound `COc1ccc2c(O[C@@H]3C[C@H]4C(=O)N[C@]5(C(=O)NS(=O)(=O)C6CC6)C[C@H]5/C=C\CCCCC[C@H](NC(=O)N5CCC(C)(C)C5)C(=O)N4C3)cc(-c3nc(C(C)C)cs3)nc2c1C`, the concentration for a half-maximal effect (EC50) with Hepatitis C virus [1] amounted to 0.1 nM; in the test with Hepatitis C virus [2] it was 0.6 nM; in the test on Hepatitis C virus [3] it was 0.5 nM; with Hepatitis C virus [5], 138 nM; in the test with Hepatitis C virus [6], 28 nM; with Hepatitis C virus [7], 17 nM. In addition, the EC50 in the test on Hepatitis C virus [8] amounted to 11 nM; in the test on Hepatitis C virus [9], 2 nM. In addition, in test [4], 2 nM corresponded to half-maximal inhibition (IC50).

Turning to `COc1ccc2c(O[C@@H]3C[C@H]4C(=O)N[C@]5(C(=O)NS(=O)(=O)C6CC6)C[C@H]5/C=C\CCCCC[C@H](NC(=O)N5CCC(CC(N)=O)CC5)C(=O)N4C3)cc(-c3nc(C(C)C)cs3)nc2c1C`, the concentration for a half-maximal effect (EC50) turned out to be 0.1 nM with Hepatitis C virus [10]; 0.2 nM with Hepatitis C virus [1]; 5.6 nM in the test with Hepatitis C virus [2]; 1.5 nM with Hepatitis C virus [3]; 431 nM in the test on Hepatitis C virus [6]; 65 nM in the test with Hepatitis C virus [7]. For the same compound, the results for the EC50 in the test on Hepatitis C virus [8] and with Hepatitis C virus [9] were 10 nM and 3 nM, respectively. For the same compound, half-maximal inhibition in test [4] (IC50) was put at 2 nM.

Take `COc1ccc2c(O[C@@H]3C[C@H]4C(=O)N[C@]5(C(=O)NS(=O)(=O)C6CC6)C[C@H]5/C=C\CCCCC[C@H](NC(=O)N5CCC(CO)CC5)C(=O)N4C3)cc(-c3nc(C(C)C)cs3)nc2c1C`: the EC50 was found to be 0.1 nM in the test on Hepatitis C virus [1]; 0.7 nM with Hepatitis C virus [2]; 0.3 nM with Hepatitis C virus [3]; 141 nM in the test on Hepatitis C virus [5]; 47 nM with Hepatitis C virus [6]; 14 nM with Hepatitis C virus [7]. The EC50 with Hepatitis C virus [8] was determined as 9 nM; in the test on Hepatitis C virus [9], 2 nM. Also, the IC50 in test [4] was found to be 1 nM.

`CC[C@@H]1C[C@]1(NC(=O)[C@@H]1C[C@@H]2CN1C(=O)[C@H](C(C)(C)C)NC(=O)OCC(C)(C)CCCCc1cccc3c1CN(C3)C(=O)O2)C(=O)NS(=O)(=O)C1CC1` [VANIPREVIR]: in the test with Hepatitis C virus [1], it took 1.6 nM to reach a half-maximal effect (EC50). This counts as single-digit nanomolar.
